Data reported in patent US6521654B2, “Substituted imidazolidine derivatives, their preparation, their use and pharmaceutical preparations including them” (Aventis Pharma Deutschland GmbH, priority 1997, dated 2003).

Biological target: T1, interaction between VCAM-1 and VLA-4 (Homo sapiens, UniProt P05556+P13612)
T1 construct: supplied in their natural form as surface molecules on human U937 cells; host or cells: U937 cells carry endogenous VLA-4; The partner hVCAM-1(1-3)-IgG was made in house in transfected COS cells (ATCC CRL1651) and used as culture supernatant
T1 sequence (P13612 34-1032): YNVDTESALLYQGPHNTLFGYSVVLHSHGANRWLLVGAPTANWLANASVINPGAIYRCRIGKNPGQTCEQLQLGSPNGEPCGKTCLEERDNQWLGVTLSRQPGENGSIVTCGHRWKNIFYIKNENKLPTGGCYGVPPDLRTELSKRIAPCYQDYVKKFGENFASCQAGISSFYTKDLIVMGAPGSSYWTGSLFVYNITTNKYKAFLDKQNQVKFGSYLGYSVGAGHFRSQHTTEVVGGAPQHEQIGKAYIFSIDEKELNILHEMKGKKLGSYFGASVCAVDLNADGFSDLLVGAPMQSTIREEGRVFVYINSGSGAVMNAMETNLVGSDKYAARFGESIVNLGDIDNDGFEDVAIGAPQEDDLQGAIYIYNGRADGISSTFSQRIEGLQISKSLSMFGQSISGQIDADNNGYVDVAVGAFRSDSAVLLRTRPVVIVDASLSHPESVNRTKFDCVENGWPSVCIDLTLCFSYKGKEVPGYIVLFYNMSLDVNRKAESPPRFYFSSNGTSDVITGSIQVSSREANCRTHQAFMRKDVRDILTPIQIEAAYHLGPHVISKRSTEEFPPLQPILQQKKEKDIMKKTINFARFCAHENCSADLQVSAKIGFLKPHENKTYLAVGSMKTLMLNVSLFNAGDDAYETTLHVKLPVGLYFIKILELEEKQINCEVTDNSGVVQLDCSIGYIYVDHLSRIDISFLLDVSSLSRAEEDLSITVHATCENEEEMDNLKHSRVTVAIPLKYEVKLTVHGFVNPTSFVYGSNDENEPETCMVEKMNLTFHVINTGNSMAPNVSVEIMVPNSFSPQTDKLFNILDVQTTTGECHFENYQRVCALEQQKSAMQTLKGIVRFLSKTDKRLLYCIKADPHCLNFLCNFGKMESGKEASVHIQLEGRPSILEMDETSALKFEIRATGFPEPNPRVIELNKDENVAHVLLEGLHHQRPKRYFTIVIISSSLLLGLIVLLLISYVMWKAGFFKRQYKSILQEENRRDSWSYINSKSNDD
T1 sequence (P05556 21-798): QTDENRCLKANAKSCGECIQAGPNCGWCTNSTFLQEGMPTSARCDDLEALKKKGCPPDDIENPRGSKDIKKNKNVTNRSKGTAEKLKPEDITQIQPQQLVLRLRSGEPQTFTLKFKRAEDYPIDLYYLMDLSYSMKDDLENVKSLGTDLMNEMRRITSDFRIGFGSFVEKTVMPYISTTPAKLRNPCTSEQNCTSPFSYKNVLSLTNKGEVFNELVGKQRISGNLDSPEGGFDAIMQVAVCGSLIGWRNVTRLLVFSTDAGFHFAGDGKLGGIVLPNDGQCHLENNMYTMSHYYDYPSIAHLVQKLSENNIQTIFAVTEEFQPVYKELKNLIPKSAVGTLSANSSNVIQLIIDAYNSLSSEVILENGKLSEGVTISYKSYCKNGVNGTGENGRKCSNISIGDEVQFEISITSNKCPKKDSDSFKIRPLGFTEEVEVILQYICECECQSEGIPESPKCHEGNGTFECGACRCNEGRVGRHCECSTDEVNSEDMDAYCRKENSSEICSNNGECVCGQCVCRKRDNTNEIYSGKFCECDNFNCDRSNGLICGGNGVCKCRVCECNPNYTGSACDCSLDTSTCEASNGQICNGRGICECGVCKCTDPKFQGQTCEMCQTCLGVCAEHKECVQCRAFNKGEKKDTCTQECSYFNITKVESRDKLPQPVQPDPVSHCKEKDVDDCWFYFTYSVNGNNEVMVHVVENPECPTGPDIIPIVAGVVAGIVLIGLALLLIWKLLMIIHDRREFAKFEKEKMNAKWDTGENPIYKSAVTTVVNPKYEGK
Assay: U937/VCAM-1 cell adhesion test (adhesion of U937 cells to hVCAM-1(1-3)-IgG)
Type: cell-based
Conditions: concentration leading to 50% inhibition of adhesion of human U937 cells (ATCC CRL 1593) to hVCAM-1(1-3)-IgG
Text: The test method used for the activity of the compounds of the formula I on the interaction between VCAM-1 and VLA-4 is the assay described below which is specific for this interaction. The cellular binding components, i.e., the VLA-4 integrins, are supplied in their natural form as surface molecules on human U937 cells (ATCC CRL 1593). which belong to the leucocytes group. The specific binding components used are genetically engineered recombinant soluble fusion proteins, consisting of the extracytoplasmatic domain of human VCAM-1 and the constant region of a human immunoglobulin of the subclass IgG1.
Assay for the Measurement of the Adhesion of U937 Cells (ATCC CRL 1593) to hVCAM-1(1-3)-IgG
1. Preparation of Human VCAM-1 (1-3)-IgG and Human CD4-IgG
A genetic construct for the expression of the extracellular domain of human VCAM-1, associated with the genetic sequence of the heavy chain of human immunoglobulin IgG1 (hinge, CH2 and CH3 regions), from Dr. Brian Seed, Massachusetts General Hospital. Boston, USA was employed (cf. Damle and Aruffo, Proc. Natl. Acad. Sci. USA 1991, 88, 6403-6407). The soluble fusion protein hVCAM-1(1-3)-IgG contained the three amino-terminal extracellular immunoglobulin-like domains of human VCAM-1 (Damle and Aruffo, Proc. Natl. Acad. Sci. USA 1991, 88, 6403-6407). CD4-IgG (Zettimeissl et al., DNA and Cell Biology 1990, 9, 347) served as a fusion protein for negative controls. The recombinant proteins were expressed as soluble proteins after DEAE/dextran-mediated DNA transfection in COS cells (ATCC CRL1651) according to standard procedures (Ausubel et al., Current Protocols in Molecular Biology, John Wiley & Sons, Inc., 1994).
2. Assay for the Measurement of the Adhesion of U937 Cells to hVCAM-1 (1-3)-IgG
2.1 96-well microtiter test plates (Nunc Maxisorb) were incubated at room temperature for 1 hour with 100 μl/well of a goat-anti-human IgG antibody solution (10 μg/ml in 50 mM tris, pH 9.5). After removal of the antibody solution, washing was carried out once with PBS.
2.2 150 μl/well of a blocking buffer (1% BSA in PBS) were incubated on the plates at room temperature for 0.5 hour. After removal of the blocking buffer, washing was carried out once with PBS.
2.3 100 μl per well of a cell culture supernatant of transfected COS cells were incubated on the plates at room temperature for 1.5 hours. The COS cells were transfected with a plasmid which codes for the three N-terminal immunoglobulin-like domains of VCAM-1, coupled to the Fc part of human IgG1 (hVCAM-1 (1-3)-IgG). The content of hVCAM-1 (1-3)-IgG was about 0.5-1 μg/ml. After removal of the culture supernatant, washing was carried out once with PBS.
2.4 The plates were incubated at room temperature for 20 minutes with 100 μl/well of Fc receptor blocking buffer (1 mg/ml of γ-globulin, 100 mM NaCl, 100 μM MgCl2, 100 μM MnCl2, 100 μM CaCl2, 1 mg/ml of BSA in 50 mM HEPES, pH 7.5). After removal of the Fc receptor blocking buffer, washing was carried out once with PBS.
2.5 20 μl of binding buffer (100 mM NaCl, 100 μM MgCl2, 100 μM MnCl2, 100 μM CaCl2, 1 mg/ml of BSA in 50 mM HEPES, pH 7.5) were initially introduced, and the substances to be tested were added in 10 μl of binding buffer and incubated for 20 minutes. The controls used were antibodies against VCAM-1 (BBT, No. BBA6) and against VLA-4 (immunotech, No. 0764).
2.6 U937 cells were incubated in Fc receptor blocking buffer for 20 minutes and then added by pipette in a concentration of 1×10^6/ml and in an amount of 100 μl per well ([…]).
2.7 The plates were slowly immersed at an angle of 45° in stop buffer (100 mM NaCl, 100 μM MgCl2, 100 μM MnCl2, 100 μM CaCl2 in 25 mM tris, pH 7.5) and shaken off. The process was repeated.
2.8 50 μl/well of a dye solution (16.7 μg/ml of Hoechst Dye 33258, 4% formaldehyde, 0.5% triton X-100 in PBS) were then incubated on the plates for 15 minutes. […]

| Compound | IC50 [nM] |
| --- | --- |
| Cc1ccccc1NC(=O)Nc1ccc(CN2C(=O)N([C@@H](CC(C)C)C(=O)N[C@@H](CC(=O)O)c3ccc(-c4ccccc4)cc3)C(=O)C2(C)C)cc1 [Example 185] | 11 |
| Cc1ccccc1NC(=O)Nc1ccc(CN2C(=O)N([C@@H](CC(C)C)C(=O)N[C@@H](CC(=O)O)c3cccc4ccccc34)C(=O)C2(C)C)cc1 [Example 186] | 2.9 |
| Cc1ccccc1NC(=O)Nc1ccc(CN2C(=O)N([C@@H](CC(C)C)C(=O)N[C@@H](CC(=O)O)c3c(F)c(F)c(F)c(F)c3F)C(=O)C2(C)C)cc1 [Example 187] | 25 |
| COc1ccc([C@H](CC(=O)O)NC(=O)[C@H](CC(C)C)N2C(=O)N(Cc3ccc(NC(=O)Nc4ccccc4C)cc3)C(C)(C)C2=O)c(OC)c1 [Example 188] | 1.6 |
| COc1ccc(C(CC(=O)O)NC(=O)C(CC(C)C)N2C(=O)N(Cc3ccc(NC(=O)Nc4ccccc4C)cc3)C(C)(c3ccccc3)C2=O)cc1OC (stereo not shown) [Example 190] | 8 |
| Cc1ccccc1NC(=O)Nc1ccc(CN2C(=O)N(C(CC(C)C)C(=O)NC(CC(=O)O)c3ccc(C(C)(C)C)cc3)C(=O)C2(C)c2ccccc2)cc1 (stereo not shown) [Example 191] | 122 |
| Cc1ccccc1NC(=O)Nc1ccc(CN2C(=O)N(C(CC(C)C)C(=O)NC(CC(=O)O)c3ccc(F)cc3)C(=O)C2(C)c2ccccc2)cc1 (stereo not shown) [Example 192] | 50 |
| COc1ccc(C(CC(=O)O)NC(=O)C(CC(C)C)N2C(=O)N(Cc3ccc(NC(=O)Nc4ccccc4C)cc3)C(C)(c3ccccc3)C2=O)cc1 (stereo not shown) [Example 193] | 15 |
| Cc1ccccc1NC(=O)Nc1ccc(CN2C(=O)N(C(CC(C)C)C(=O)NC(CC(=O)O)c3ccc(CC(C)C)cc3)C(=O)C2(C)c2ccccc2)cc1 (stereo not shown) [Example 194] | 450 |
| COc1cccc(C(CC(=O)O)NC(=O)C(CC(C)C)N2C(=O)N(Cc3ccc(NC(=O)Nc4ccccc4C)cc3)C(C)(c3ccccc3)C2=O)c1OC (stereo not shown) [Example 201] | 25 |
| Cc1ccccc1NC(=O)Nc1ccc(CN2C(=O)N(C(CC(C)C)C(=O)NC(CC(=O)O)c3c(F)cccc3F)C(=O)C2(C)c2ccccc2)cc1 (stereo not shown) [Example 205] | 95 |
| Cc1ccccc1NC(=O)Nc1ccc(CN2C(=O)N(C(CC(C)C)C(=O)NC(CC(=O)O)c3ccccc3F)C(=O)C2(C)c2ccccc2)cc1 (stereo not shown) [Example 214] | 17 |
| Cc1ccccc1NC(=O)Nc1ccc(CN2C(=O)N(C(CC(C)C)C(=O)NC(CC(=O)O)c3ccc(F)cc3)C(=O)C2(C)c2ccccc2)cc1 (stereo not shown) [Example 216] | 50 |
